The values that follow come from patent US11629139B2 (priority 2017, dated 2023).

Structures are written as SMILES.

In this experiment the test system is vesicular stomatitis virus particles (VSV) pseudotyped with EboV Zaire GP. Put plainly: microbe, parasite or virus in culture. In kind it is cell-based. To be noted: Vesicular stomatitis virus.

As for `O=C(CC1CCC(F)(F)CC1)NCC(=O)N1CCN(Cc2cc(Cl)ccc2NC(=O)C2CC2)CC1` [Compound 1378, N-(4-Chloro-2-((4-((2-(4,4-difluorocyclohexyl)acetyl)glycyl)piperazin-1-yl)methyl)phenyl)cyclopropanecarboxamide], the IC50 (as a rule, the point on the concentration scale where inhibition reaches its midpoint) is over 2000 nM. The result for `O=C(CC1CCC(F)(F)CC1)NCC(=O)N1CCN(Cc2cc(F)ccc2OCc2ccc3nonc3c2)CC1` [Compound 1456] reads 190 nM. The molecule `O=C(CC1CCC(F)(F)CC1)NCC(=O)N1CCN(Cc2cc(Cl)cc(F)c2O)CC1` [Compound 1402, N-(2-(4-(5-Chloro-3-fluoro-2-hydroxybenzyl)piperazin-1-yl)-2-oxoethyl)-2-(4,4-difluorocyclohexyl)acetamide] registered a half-maximal inhibitory concentration (IC50) of 2900 nM. Turning to `O=C(CC1CCC(F)(F)CC1)NCC(=O)N1CCN(Cc2cc(Cl)cc3cccnc23)CC1` [Compound 1422, N-(2-(4-((6-Chloroquinolin-8-yl)methyl)piperazin-1-yl)-2-oxoethyl)-2-(4,4-difluorocyclohexyl)acetamide], the IC50 was 360 nM.

`O=C(NCC(=O)N1CCN(Cc2cc(Cl)ccc2O)CC1)C1CC1c1ccc(F)cc1` (stereo not drawn) [Compound 1425, N-(2-(4-(5-Chloro-2-hydroxybenzyl)piperazin-1-yl)-2-oxoethyl)-2-(4-fluorophenyl)cyclopropane-1-carboxamide] registered an IC50 of 3400 nM. To `COC(=O)c1ccc(COc2ccccc2CN2CCN(C(=O)CNC(=O)CC3CCC(F)(F)CC3)CC2)cc1` [Compound 1275, Methyl 4-((2-((4-((2-(4,4-difluorocyclohexyl)acetyl)glycyl)piperazin-1-yl)methyl)phenoxy)methyl)benzoate] belongs 50 nM; to `O=C(CC12CC3CC(CC(C3)C1)C2)NCC(=O)N1CCN(Cc2cc(F)cc(Br)c2)CC1` [Compound 1339, 2-((1R,3R,5S)-Adamantan-1-yl)-N-(2-(4-(3-bromo-5-fluorobenzyl)piperazin-1-yl)-2-oxoethyl)acetamide], 1400 nM. Take `CS(=O)(=O)c1ccc(COc2ccc(Cl)cc2CN2CCN(C(=O)CNC(=O)C3CC34CCCCC4)CC2)cc1` (stereo not drawn) [Compound 1539, Spiro[2.5]octane-1-carboxylic acid (2-{4-[5-chloro-2-(4-methanesulfonyl-benzyloxy)-benzyl]-piperazin-1-yl}-2-oxo-ethyl)-amide]: the IC50 was found to be 100 nM. `COC(=O)c1ccc(COc2ccc(Cl)cc2CN2CCN(C(=O)CNC(=O)C(F)(F)C(F)F)CC2)cc1` [Compound 1358, Methyl 4-((4-chloro-2-((4-((2,2,3,3-tetrafluoropropanoyl)glycyl)piperazin-1-yl)methyl)phenoxy)methyl)benzoate] yielded an IC50 of 200 nM.

As for `COC(=O)c1ccc(COc2ccccc2CN2CCN(C(=O)CNC(=O)C3C4CC(F)(F)CC43)CC2)cc1` (stereo not drawn) [Compound 1344, Methyl 4-((2-((4-((3,3-difluorobicyclo[3.1.0]hexane-6-carbonyl)glycyl)piperazin-1-yl)methyl)phenoxy)methyl)benzoate], the IC50 turned out to be 170 nM. With `Nc1ncc(Cl)cc1CN1CCN(C(=O)CNC(=O)CC23CC4CC(CC(C4)C2)C3)CC1` [Compound 1304, 2-((1R,3R,5S)-Adamantan-1-yl)-N-(2-(4-((2-amino-5-chloropyridin-3-yl)methyl)piperazin-1-yl)-2-oxoethyl)acetamide], the IC50 was over 1500 nM. On to `[2H]C([2H])(c1cc(Cl)ccc1NCc1ccc(C(=O)OC)nc1)N1CCN(C(=O)CNC(=O)C2CC23CCC(F)(F)CC3)CC1` (stereo not drawn) [Compound 1549, 5-{[4-Chloro-2-(4-{2-[(6,6-difluoro-spiro[2.5]octane-1-carbonyl)-amino]-acetyl}-piperazin-1-yl-di-deutero-methyl)-phenylamino]-methyl}-pyridine-2-carboxylic acid methyl ester], for which the IC50 stood at 50 nM. The result for `O=C(CC12CC3CC(C1)CC(c1ccccc1)(C3)C2)NCC(=O)N1CCN(Cc2ccccc2OCc2ccc(Br)cc2)CC1` [Compound 1141] reads 700 nM; that for `O=C(CC12CC3CC(CC(C3)C1)C2)NCC(=O)N1CCN(Cc2cc(F)c(F)cc2Cl)CC1` [Compound 1353, 2-((1R,3R,5S)-Adamantan-1-yl)-N-(2-(4-(2-chloro-4,5-difluorobenzyl)piperazin-1-yl)-2-oxoethyl)acetamide], 1500 nM; that for `O=C(CC12CC3CC(CC(C3)C1)C2)NCC(=O)N1CCN(Cc2cc(Cl)ccc2F)CC1` [Compound 1305, 2-((1R,3R,5S)-Adamantan-1-yl)-N-(2-(4-(5-chloro-2-fluorobenzyl)piperazin-1-yl)-2-oxoethyl)acetamide], 360 nM.

For the molecule `CC1(CC(=O)NCC(=O)N2CCN(Cc3cc(Cl)cc4cccnc34)CC2)CCOCC1` [Compound 1424], half-maximal inhibition (IC50) required 2800 nM. Against the preceding molecule, the IC50 is about 7.8-fold higher. To `O=C(CC1CCC(F)(F)CC1)NCC(=O)N1CCN(Cc2cc(Cl)ccc2NS(=O)(=O)C2CC2)CC1` [Compound 1379, N-(2-(4-(5-Chloro-2-(cyclopropanesulfonamido)benzyl)piperazin-1-yl)-2-oxoethyl)-2-(4,4-difluorocyclohexyl)acetamide] belongs about 2200 nM; to `COC(=O)c1ccc(COc2ccccc2CN2CCN(C(=O)CNC(=O)C3CCC(F)(F)CC3)CC2)cc1` [Compound 1298], 1500 nM; to `[2H]C([2H])(c1cc(Cl)ccc1NCc1ccc(F)cn1)N1CCN(C(=O)CNC(=O)[C@@H]2CC23CCC(F)(F)CC3)CC1` [Compound 1582], 240 nM. As to `COC(=O)COc1ccc(Cl)cc1CN1CCN(C(=O)CNC(=O)CC23CC4CC(CC(C4)C2)C3)CC1` [Compound 1302, Methyl 2-(2-((4-((2-((1R,3R,5S)-adamantan-1-yl)acetyl)glycyl)piperazin-1-yl)methyl)-4-chlorophenoxy)acetate], the IC50 was over 2000 nM. Regarding `O=C(CC12CC3CC(C1)C(C3)C2)NCC(=O)N1CCN(Cc2cc(Cl)cc(OC(F)(F)F)c2)CC1` [Compound 1330], half-maximal inhibition (IC50) was put at 1510 nM. Turning to `O=C(CC1CCC(F)(F)CC1)NCC(=O)N1CCN(Cc2cc(Cl)cc3cn[nH]c23)CC1` [Compound 1406, N-(2-(4-((5-Chloro-JH-indazol-7-yl)methyl)piperazin-1-yl)-2-oxoethyl)-2-(4,4-difluorocyclohexyl)acetamide], the IC50 is 460 nM.

As to `O=C(CC12CC3CC(CC(C3)C1)C2)NCC(=O)N1CCN(Cc2cc(Cl)cc(F)c2F)CC1` [Compound 1327, 2-((1R,3R,5S)-Adamantan-1-yl)-N-(2-(4-(5-chloro-2,3-difluorobenzyl)piperazin-1-yl)-2-oxoethyl)acetamide], the IC50 was determined as 670 nM.

Turning to `O=C(CC12CC3CC(CC(Cl)(C3)C1)C2)NCC(=O)N1CCN(Cc2ccccc2OCc2ccc(Br)cc2)CC1` [Compound 1243], the IC50 amounted to 500 nM. To `O=C(CC1CCC(F)(F)CC1)NCC(=O)N1CCN(Cc2cc(Cl)cc(OC3CC3)c2)CC1` [Compound 1365, N-(2-(4-(3-Chloro-5-cyclopropoxybenzyl)piperazin-1-yl)-2-oxoethyl)-2-(4,4-difluorocyclohexyl)acetamide] belongs 1600 nM; to `CS(=O)(=O)c1ccc(COc2ccc(F)cc2CN2CCN(C(=O)CNC(=O)CC3CCC(F)(F)CC3)CC2)cc1` [Compound 1455], 40 nM. `CS(=O)(=O)c1ccc(Oc2cc(Cl)cc(CN3CCN(C(=O)CNC(=O)CC4CCC(F)(F)CC4)CC3)c2)cc1` [Compound 1462] gave an IC50 of over 1000 nM. Molecule `COC(=O)c1ccc(COc2ccc(F)cc2CN2CCN(C(=O)CNC(=O)CC3CCC(F)(F)CC3)CC2)cc1` [Compound 1335, Methyl 4-((2-((4-((2-(4,4-difluorocyclohexyl)acetyl)glycyl)piperazin-1-yl)methyl)-4-fluorophenoxy)methyl)benzoate] registered a 50% inhibitory concentration (IC50) of 18 nM. The molecule `Nc1ccc(CN2CCN(C(=O)CNC(=O)CC3CCC(F)(F)CC3)CC2)cc1Cl` [Compound 1387, N-(2-(4-(4-Amino-3-chlorobenzyl)piperazin-1-yl)-2-oxoethyl)-2-(4,4-difluorocyclohexyl)acetamide] showed an IC50 of over 5000 nM.

Turning to `COC(=O)c1ccc(COc2ccccc2CN2CCN(C(=O)CNC(=O)CC(C)(C)c3ccccc3)CC2)cc1` [Compound 1279], the midpoint of inhibition, the IC50, lay at 1500 nM.

`[2H]C([2H])(c1cc(Cl)ccc1NCc1ccc(S(C)(=O)=O)c(F)c1)N1CCN(C(=O)CNC(=O)[C@@H]2CC23CCC(F)(F)CC3)CC1` [Compound 1561]: the IC50 came out at 8 nM. The result for `COC(=O)c1ccc(COc2ccc(OC)cc2CN2CCN(C(=O)CNC(=O)CC34CC5CC(CC(C5)C3)C4)CC2)cc1` [Compound 1115] reads 1400 nM. To `O=C(NCC(=O)N1CCN(Cc2cc(Cl)ccc2O)CC1)C1CC12CCC(F)(F)CC2` (stereo not drawn) [Compound 1398, N-(2-(4-(5-Chloro-2-hydroxybenzyl)piperazin-1-yl)-2-oxoethyl)-6,6-difluorospiro[2.5]octane-1-carboxamide] belongs 75 to 320 nM. On to `[2H]C([2H])(c1cc(Cl)ccc1NCc1cnco1)N1CCN(C(=O)CNC(=O)C2CC23CCC(F)(F)CC3)CC1` (stereo not drawn) [Compound 1560], for which the IC50 turned out to be 40 nM. This counts as double-digit nanomolar. `CC1(CC(=O)NCC(=O)N2CCN(Cc3ccccc3OCc3ccc(Br)cc3)CC2)CCCCC1` [Compound 1142] returned an IC50 of 520 nM. As to `O=C(CC12CC3CC(CC(C3)C1)C2)NCC(=O)N1CCN(Cc2cc(Br)ccc2Cl)CC1` [Compound 1338, 2-((1R,3R,5S)-Adamantan-1-yl)-N-(2-(4-(5-bromo-2-chlorobenzyl)piperazin-1-yl)-2-oxoethyl)acetamide], inhibition was half-maximal at 82 nM (IC50). To `O=C(Nc1ncc(Cl)cc1CN1CCN(C(=O)CNC(=O)C2CC23CCC(F)(F)CC3)CC1)NC1CC1` (stereo not drawn) [Compound 1393, N-(2-(4-((5-Chloro-2-(3-cyclopropylureido)pyridin-3-yl)methyl)piperazin-1-yl)-2-oxoethyl)-6,6-difluorospiro[2.5]octane-1-carboxamide] belongs over 5000 nM.

On to `COC(=O)c1ccc(COc2ccccc2C(C)N2CCN(C(=O)CNC(=O)CC34CC5CC(CC(C5)C3)C4)CC2)cc1` (stereo not drawn) [Compound 1122], for which the IC50 is about 2000 nM.

In turn, `NC(=O)Nc1ccc(Cl)cc1CN1CCN(C(=O)CNC(=O)CC2CCC(F)(F)CC2)CC1` [Compound 1361, N-(2-(4-(5-Chloro-2-ureidobenzyl)piperazin-1-yl)-2-oxoethyl)-2-(4,4-difluorocyclohexyl)acetamide] displayed an IC50 of over 2000 nM.
